In PubChem BioAssay (NCI):
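How tested: cells in 96-well plates exposed to compound for 48 hours at five concentrations. The concentration for 50% growth inhibition is given as GI50. TGI is the concentration that stops growth completely.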

Columns and labels:
Assay in all cases: DTP human tumour cell line panel, 48 h
786-0 renal = system: 786-0 renal
A498 renal = system: A498 renal
A549 NSCLC = system: A549 NSCLC
ACHN renal = system: ACHN renal
BT-549 breast = system: BT-549 breast
CAKI-1 renal = system: CAKI-1 renal
CCRF-CEM leukemia = system: CCRF-CEM leukemia
COLO 205 colon = system: COLO 205 colon
DU-145 prostate = system: DU-145 prostate
EKVX NSCLC = system: EKVX NSCLC
HCC-2998 colon = system: HCC-2998 colon
HCT-116 colon = system: HCT-116 colon
HCT-15 colon = system: HCT-15 colon
HL-60(TB) leukemia = system: HL-60(TB) leukemia
HOP-62 NSCLC = system: HOP-62 NSCLC
HOP-92 NSCLC = system: HOP-92 NSCLC
HS 578T breast = system: HS 578T breast
HT29 colon = system: HT29 colon
IGROV1 ovarian = system: IGROV1 ovarian
K-562 leukemia = system: K-562 leukemia
KM12 colon = system: KM12 colon
LOX IMVI melanoma = system: LOX IMVI melanoma
M14 melanoma = system: M14 melanoma
MALME-3M melanoma = system: MALME-3M melanoma
MCF7 breast = system: MCF7 breast
MDA-MB-231 breast = system: MDA-MB-231 breast
MDA-MB-435 = system: MDA-MB-435
MOLT-4 leukemia = system: MOLT-4 leukemia
NCI-H226 lung = system: NCI-H226 lung
NCI-H23 lung = system: NCI-H23 lung
NCI-H460 lung = system: NCI-H460 lung
NCI-H522 lung = system: NCI-H522 lung
NCI/ADR-RES ovarian = system: NCI/ADR-RES ovarian
OVCAR-3 ovarian = system: OVCAR-3 ovarian
OVCAR-4 ovarian = system: OVCAR-4 ovarian
OVCAR-5 ovarian = system: OVCAR-5 ovarian
OVCAR-8 ovarian = system: OVCAR-8 ovarian
PC-3 prostate = system: PC-3 prostate
RPMI-8226 leukemia = system: RPMI-8226 leukemia
RXF 393 renal = system: RXF 393 renal
SF-268 CNS = system: SF-268 CNS
SF-295 CNS = system: SF-295 CNS
SF-539 CNS = system: SF-539 CNS
SK-MEL-2 melanoma = system: SK-MEL-2 melanoma
SK-MEL-28 melanoma = system: SK-MEL-28 melanoma
SK-MEL-5 melanoma = system: SK-MEL-5 melanoma
SK-OV-3 ovarian = system: SK-OV-3 ovarian
SN12C renal = system: SN12C renal
SNB-19 CNS = system: SNB-19 CNS
SNB-75 CNS = system: SNB-75 CNS
SR leukemia = system: SR leukemia
SW-620 colon = system: SW-620 colon
T-47D breast = system: T-47D breast
TK-10 renal = system: TK-10 renal
U251 CNS = system: U251 CNS
UACC-257 melanoma = system: UACC-257 melanoma
UACC-62 melanoma = system: UACC-62 melanoma
UO-31 renal = system: UO-31 renal

CC(C)NCCCn1c(Sc2cc3c(cc2I)OCO3)nc2c(N)ncnc21 was tested, and the GI50 (786-0 renal) was 515 nM, the TGI (786-0 renal) was > 100000 nM and the GI50 (A498 renal) was 435 nM. The TGI (A498 renal) was 5600 nM, the GI50 (A549 NSCLC) was 87.2 nM and the TGI (A549 NSCLC) was > 86600 nM. The GI50 (ACHN renal) was 297 nM, the TGI (ACHN renal) was > 100000 nM and the GI50 (BT-549 breast) was 1510 nM. The TGI (BT-549 breast) was > 100000 nM, the GI50 (CAKI-1 renal) was 527 nM and the TGI (CAKI-1 renal) was > 21100 nM. For the same compound, the GI50 (CCRF-CEM leukemia) was 425 nM, the TGI (CCRF-CEM leukemia) was > 100000 nM and the GI50 (COLO 205 colon) was 47.7 nM. The TGI (COLO 205 colon) was 10800 nM, the GI50 (DU-145 prostate) was 47.3 nM and the TGI (DU-145 prostate) was > 100000 nM. The GI50 (EKVX NSCLC) was 2530 nM, the TGI (EKVX NSCLC) was > 100000 nM and the GI50 (HCC-2998 colon) was 280 nM. For the same compound, the TGI (HCC-2998 colon) was 11600 nM, the GI50 (HCT-116 colon) was 62.8 nM and the TGI (HCT-116 colon) was > 100000 nM. The GI50 (HCT-15 colon) was 441 nM, the TGI (HCT-15 colon) was > 100000 nM and the GI50 (HL-60(TB) leukemia) was 63.7 nM. For the same compound, the TGI (HL-60(TB) leukemia) was 6910 nM, the GI50 (HOP-62 NSCLC) was 263 nM and the TGI (HOP-62 NSCLC) was > 100000 nM. The GI50 (HOP-92 NSCLC) was 289 nM, the TGI (HOP-92 NSCLC) was 1620 nM and the GI50 (HS 578T breast) was 1280 nM. The TGI (HS 578T breast) was > 100000 nM, the GI50 (HT29 colon) was 38.1 nM and the TGI (HT29 colon) was > 83200 nM. It also gave a GI50 (IGROV1 ovarian) of 88.5 nM, a TGI (IGROV1 ovarian) of 3520 nM and a GI50 (K-562 leukemia) of 70.8 nM. For the same compound, the TGI (K-562 leukemia) was > 100000 nM, the GI50 (KM12 colon) was 59.2 nM and the TGI (KM12 colon) was 755 nM. It also gave a GI50 (LOX IMVI melanoma) of 78.7 nM, a GI50 (M14 melanoma) of 233 nM and a TGI (M14 melanoma) of 20900 nM. It also gave a GI50 (MALME-3M melanoma) of 124 nM, a TGI (MALME-3M melanoma) of 2120 nM and a GI50 (MCF7 breast) of 45.3 nM. For the same compound, the TGI (MCF7 breast) was > 100000 nM, the GI50 (MDA-MB-231 breast) was 481 nM and the TGI (MDA-MB-231 breast) was 61000 nM. It also gave a GI50 (MDA-MB-435) of 91.9 nM, a TGI (MDA-MB-435) of 42000 nM and a GI50 (MOLT-4 leukemia) of 91.5 nM. The TGI (MOLT-4 leukemia) was > 91900 nM, the GI50 (NCI-H226 lung) was 767 nM and the TGI (NCI-H226 lung) was 79400 nM. For the same compound, the GI50 (NCI-H23 lung) was 89.7 nM, the TGI (NCI-H23 lung) was > 100000 nM and the GI50 (NCI-H460 lung) was 57.6 nM. For the same compound, the TGI (NCI-H460 lung) was > 100000 nM, the GI50 (NCI-H522 lung) was 58.8 nM and the TGI (NCI-H522 lung) was > 100000 nM. For the same compound, the GI50 (NCI/ADR-RES ovarian) was 3660 nM, the TGI (NCI/ADR-RES ovarian) was > 100000 nM and the GI50 (OVCAR-3 ovarian) was 585 nM. For the same compound, the TGI (OVCAR-3 ovarian) was > 100000 nM, the GI50 (OVCAR-4 ovarian) was > 33300 nM and the TGI (OVCAR-4 ovarian) was > 100000 nM. For the same compound, the GI50 (OVCAR-5 ovarian) was 3020 nM, the TGI (OVCAR-5 ovarian) was > 100000 nM and the GI50 (OVCAR-8 ovarian) was 156 nM. For the same compound, the TGI (OVCAR-8 ovarian) was > 100000 nM, the GI50 (PC-3 prostate) was 133 nM and the TGI (PC-3 prostate) was > 100000 nM. For the same compound, the GI50 (RPMI-8226 leukemia) was 1530 nM, the TGI (RPMI-8226 leukemia) was > 47700 nM and the GI50 (RXF 393 renal) was 753 nM. The TGI (RXF 393 renal) was 48800 nM, the GI50 (SF-268 CNS) was 2100 nM and the TGI (SF-268 CNS) was > 100000 nM. The GI50 (SF-295 CNS) was 143 nM, the TGI (SF-295 CNS) was 8520 nM and the GI50 (SF-539 CNS) was 858 nM. The TGI (SF-539 CNS) was > 68400 nM, the GI50 (SK-MEL-2 melanoma) was 357 nM and the TGI (SK-MEL-2 melanoma) was > 83200 nM. The GI50 (SK-MEL-28 melanoma) was 418 nM, the TGI (SK-MEL-28 melanoma) was 44500 nM and the GI50 (SK-MEL-5 melanoma) was 462 nM. For the same compound, the TGI (SK-MEL-5 melanoma) was 18000 nM, the GI50 (SK-OV-3 ovarian) was 45.1 nM and the TGI (SK-OV-3 ovarian) was > 100000 nM. For the same compound, the GI50 (SN12C renal) was 174 nM, the TGI (SN12C renal) was > 100000 nM and the GI50 (SNB-19 CNS) was 646 nM. The TGI (SNB-19 CNS) was > 100000 nM, the GI50 (SNB-75 CNS) was 727 nM and the TGI (SNB-75 CNS) was > 100000 nM. For the same compound, the GI50 (SR leukemia) was 60.2 nM, the TGI (SR leukemia) was > 100000 nM and the GI50 (SW-620 colon) was 59.2 nM. The TGI (SW-620 colon) was > 100000 nM, the GI50 (T-47D breast) was 155 nM and the TGI (T-47D breast) was > 100000 nM. For the same compound, the GI50 (TK-10 renal) was 161 nM, the TGI (TK-10 renal) was > 100000 nM and the GI50 (U251 CNS) was 128 nM. The TGI (U251 CNS) was > 100000 nM, the GI50 (UACC-257 melanoma) was 308 nM and the TGI (UACC-257 melanoma) was 13500 nM. The GI50 (UACC-62 melanoma) was 368 nM, the TGI (UACC-62 melanoma) was > 41000 nM and the GI50 (UO-31 renal) was 323 nM. It also gave a TGI (UO-31 renal) of 7130 nM.
